Reference: US5872139A, “Heterocyclymethylamino derivatives of cyclobutene-3,4-diones” (American Home Products Corporation, priority 1997, dated 1999)

What was measured:
[1] = tested on: Isolated Rat Bladder Strips; test: Inhibition of contractions in isolated rat bladder strips (KCl-stimulated); format: cell-based, Sprague-Dawley rats; details: 15 mM KCl; for IC50: 30 minute challenge; for inhibition at 30 µM: read-out: Percent inhibition (I) at 30 μM
Text: The smooth muscle relaxing activity of the compounds of this invention was established in accordance with standard pharmaceutically accepted test procedures with representative compounds as follows:
Sprague-Dawley rats (150-200 g) are rendered unconscious by CO2 asphyxiation and then euthanized by cervical dislocation. The bladder is removed into warm (37 deg. C.) physiological salt solution (PSS) of the following composition (mM): NaCl, 118.4; KCl, 4.7; CaCl2, 2.5; […]; NaHCO3, 24.9; KH2 PO4, 1.2; glucose, 11.1; EDTA, 0.023; gassed with […]; pH 7.4. The bladder is opened and then cut into strips 1-2 mm in width and 7-10 mm in length. The strips are subsequently suspended in a 10 mL tissue bath under an initial resting tension of 1.5 g. The strips are held in place by two surgical clips one of which is attached to a fixed hook while the other is attached to an isometric force transducer. […] The carbachol is then washed out and the tissue allowed to relax to its resting level of activity. Following a further 30 min period of recovery an additional 15 mM KCl are introduced into the tissue bath. This increase in KCl concentration results in a large increase in the amplitude of spontaneous contractions (and initiation of contractions in previously quiescent strips) superimposed upon a small increase in basal tone. Following stabilization of this enhanced level of contractile activity, incremental increases in the concentration of test compound or vehicle are introduced into the tissue bath. Contractile activity is measured for each compound or vehicle concentration during the last minute of a 30 minute challenge.
The isometric force developed by the bladder strips is measured using a […] to elicit 50% inhibition of pre-drug contractile activity (IC50 concentration) and is calculated from this concentration-response curve.

[2] = tested on: hypertrophied bladder (detrussor) smooth muscle; test: Inhibition of spontaneous contractions in vivo, hypertrophied rat bladder model (conscious rats, cystometry); design: species or system female Sprague-Dawley rats; details: 10 mg/kg p.o., 3 animals, conscious female rats, second cystometry one hour after dosing
Experimental: In addition, we tested the ability of the compound of Example 1, as representative of the other compounds of this invention, to inhibit the hyperactivity of hypertrophied bladder (detrussor) smooth muscle in conscious female rats with hypertrophied bladders and thereby alleviate urinary incontinence according to the protocol described by Malmgrem et al., J. Urol. 142:1134, 1989.
Female Sprague-Dawley rats, ranging in weight from 190-210 g are used. Up to 25 animals are prepared each time. After development of bladder hypertrophy 4-8 animals are used per test.
Compounds are dissolved in PEG-200 and administered by gastric gavage or intraveneously in a volume of 5 ml/kg. For primary screening all drugs are administered at the arbitrary dose of 10 mg/kg p.o. to groups of 4 rats.
The animals are anesthetized with halothane. […]
The following urodynamic variables are recorded:
The mean value of each variable is calculated before and after compound administration. For each compound the changes in the variables measured are compared to the values obtained before treatment and expressed as percent inhibition. The data are also subjected to 2-way analysis of variance to determine significant (p<0.05) changes in the variable measured.

Compound | IC50 ([1]; 0.5 h) [nM] | inhibition at 30 µM ([1]; 30 μM) [%] | also measured
CC(C)(C)Nc1c(NCc2ccccn2)c(=O)c1=O [Example 6, 3-tert-Butylamino-4-[(pyridin-2-ylmethyl)amino]-cyclobut-3-ene-1,2-dione] | 11400 ± 4300 |  | 
CC(C)N(C)c1c(NCc2ccncc2)c(=O)c1=O [Example 7, 3-(Isopropyl-methyl-amino)-4-[(pyridin-4-ylmethyl)-amino]-cyclobut-3-ene-1,2-dione] |  | 27.3 ± 7 | 
CCC(C)(C)Nc1c(NCc2cc3cc(C#N)ccc3o2)c(=O)c1=O [Example 11, 2-{[2-(1,1-Dimethyl-propylamino)-3,4-dioxo-cyclobut-1-enylamino]-methyl}-benzofuran-5-carbonitrile] | 1560 ± 160 |  | 
CCC(C)(C)Nc1c(NCc2cc3cc([N+](=O)[O-])ccc3o2)c(=O)c1=O [Example 9, 3-(1,1-Dimethyl-propylamino)-4-[(5-nitro-benzofuran-2-ylmethyl)-amino]-cyclobut-3-ene-1,2-dione] |  | 22.2 ± 7.4 | 
CC(C)(Cc1ccccc1)Nc1c(NCc2cc3cc(C#N)ccc3o2)c(=O)c1=O [Example 14, 2-{[2-(1,1-Dimethyl-2-phenyl-ethylamino)-3,4-dioxo-cyclobut-1-enylamino]-methyl}-benzofuran-5-carbonitrile] |  | 31.9 ± 6.4 | 
CC(Nc1c(NCc2ccncc2)c(=O)c1=O)C(C)(C)C (stereo not drawn) [Example 15, 3-[(Pyridin-4-ylmethyl)-amino]-4-(1,2,2-trimethyl-propylamino)-cyclobut-3-ene-1,2-dione] | 2450 ± 990 |  | 
CC(C)(C)Nc1c(NCc2cc3cc([N+](=O)[O-])ccc3o2)c(=O)c1=O [Example 10, 3-tert-butylamino-4-[(5-nitro-benzofuran-2-ylmethyl)-amino]-cyclobut-3-ene-1,2-dione] |  | 11.5 ± 3.2 | 
CC(C)(C)Nc1c(NCc2ccncc2)c(=O)c1=O [Example 4, 3-tert-Butylamino-4-[(pyridin-4-ylmethyl)amino]-cyclobut-3-ene-1,2-dione] | 3000 ± 200 |  | 
C[C@@H](Nc1c(NCc2cc3cc([N+](=O)[O-])ccc3o2)c(=O)c1=O)C(C)(C)C [Example 8, 3-[(5-nitro-benzofuran-2-ylmethyl)-amino]-4-(1,2,2-trimethylpropylamino)-cyclobut-3-ene-1,2-dione] |  |  | activity at 30 µM ([1]; 0.5 h, 30 μM, read-out: Percent contraction (C) at 30 μM): 8.5 ± 1.4%
CC(C)(C)Nc1c(NCc2cc3cc(C#N)ccc3o2)c(=O)c1=O [Example 13, 2-[(2-tert-butylamino-3,4-dioxo-cyclobut-1-enylamino)-methyl]-benzofuran-5-carbonitrile] |  | 19.9 ± 8.5 | 
CC(C)(C)Nc1c(NCc2cccnc2)c(=O)c1=O [Example 5, 3-tert-Butylamino-4-[(pyridin-3-ylmethyl)amino]-cyclobut-3-ene-1,2-dione] | 2630 ± 220 |  | 

The next lines start with results.

IC50 ([1]; 0.5 h) [nM] | Compound | inhibition at 30 µM ([1]; 30 μM) [%] | also measured
1250 ± 340 | CCC(C)(C)Nc1c(NCc2ccccn2)c(=O)c1=O [Example 3, 3-(1,1-Dimethylpropylamino)-4-[(pyridin-2-ylmethyl)amino]-cyclobut-3-ene-1,2-dione] |  | 
1250 ± 390 | CCC(C)(C)Nc1c(NCc2cccnc2)c(=O)c1=O [Example 2] |  | 
3750 ± 1440 | C[C@@H](Nc1c(NCc2cc3cc(C#N)ccc3o2)c(=O)c1=O)C(C)(C)C [Example 12, 2-{[3,4-Dioxo-2-(1,2,2-trimethyl-propylamino)-cyclobut-1-enylamino]-methyl}-benzofuran-5-carbonitrile] | 5.5 ± 4 | 
420 ± 60 | CCC(C)(C)Nc1c(NCc2ccncc2)c(=O)c1=O [Example 1, 3-(1,1-Dimethylpropylamino)-4-[(pyridin-4-ylmethyl)-amino]-cyclobut-3-ene-1,2-dione] |  | % Red (F): percent reduction in the total number of spontaneous contractions in the hypertrophied rat bladder model [2]: -8 ± 4%
1300 ± 630 | CCC(C)(C)Nc1c(NCc2oc3ccc(C#N)cc3c2Cl)c(=O)c1=O [Example 16, 2-{[2-(1,1-Dimethyl-propylamino)-3,4-dioxo-cyclobut-1-enylamino]-methyl}-3-chloro-benzofuran-5-carbonitrile] |  | 
